Experimental data as given in US12667566B2, “Combination therapy of GPR119 agonists and DPP-4 inhibitors” (MANKIND PHARMA LTD., priority 2019, dated 2026).

Experiments:
blood glucose = assay: Oral glucose tolerance test (OGTT); format: in vivo; details: male Sprague Dawley rats, glucose load 2 g/kg
Description: FIG. 1. Oral glucose tolerance test (OGTT) of GPR119 agonist Formula 1A in male Sprague Dawley rats. Formula 1A was administered to the rats and blood glucose was monitored post 30 min of dose administration (0-time point). After glucose administration (2 g/kg/10 ml), glucose levels were estimated at different time points (5, 15, 30, 60 & 120 min) and compared to vehicle group. Data was analysed by One-Way ANOVA followed by Dunnett's Multiple Comparison Test. *P<0.05, **P<0.01 & ***P<0.001 vs vehicle control. Vehicle used was 0.5% Tween 80 and 99.5% NaCMC in water (0.5% w/v).
OGTT study is conducted in male Sprague dawley rats. […] Vehicle (0.5% Tween 80 and 99.5% NaCMC in water (0.5% w/v) was administered to control animals and remaining groups were administered with test compound prepared in vehicle at respective doses orally. Blood samples were collected immediately after test compound administration (which was −30 min time point). Blood glucose was monitored post 30 min of dose administration (which was a zero min time point). All animals received 2 g/kg/10 ml (20%) of Glucose solution orally. After glucose administration, glucose levels were estimated at different time points (5, 15, 30, 60 & 120 min). Estimation of blood glucose level was done by strip method. […] Blood glucose AUC was calculated from the samples collected at respective time points. […]

active GLP-1 = assay: Active GLP-1 estimation; format: in vivo; details: male Sprague Dawley rats, oral
Description: FIG. 2. Effect of GPR119 agonist Formula 1A on active GLP-1 levels in male Sprague Dawley rats. Formula 1A was administered to the rats and GLP-1 levels were estimated at different time points (0, 5, 15, 30 & 60 min) and compared to vehicle group. Data was analysed by One-Way ANOVA followed by Dunnett's Multiple Comparison Test. *P<0.05, **P<0.01, ***P<0.001 vs vehicle control. Vehicle used was 0.5% Tween 80 and 99.5% NaCMC in water (0.5% w/v).
GLP-1 estimation is conducted in male Sprague dawley rats. Animals of 8-10 weeks old were kept for overnight fasting (only water was provided ad libitum). […] were randomized based on basal glucose values into four different groups. Vehicle (0.5% Tween 80 and 99.5% NaCMC in water (0.5% w/v) was administered to control animals and remaining groups were administered with test compound prepared in vehicle at respective doses orally.
For active GLP-1 estimation, blood was collected by retro orbital puncture under isoflurane anesthesia. Active GLP-1 levels were estimated from the collected plasma at −30, 0, 5, 15, 30 & 60 min time points. Blood collection (Approximately 400-500 μl) was done by retro orbital puncture under isoflurane anesthesia with the help of DPP-4 inhibitor (#DPP4-010, Merck-Millipore) rinsed capillaries and collected into pre-coated Eppendorf (10 μl/ml of blood) with DPP-4 inhibitor.

Compound	glucose reduction compared to vehicle (blood glucose; 10 mg/kg) [%]	increase in active GLP-1 secretion compared to vehicle (active GLP-1; 10 mg/kg/wt) [%]	glucose reduction compared to vehicle (blood glucose; 3 mg/kg) [%]	increase in active GLP-1 secretion compared to vehicle (active GLP-1; 3 mg/kg/wt) [%]
CCc1cnc(N2CCC([C@H](C)Oc3nn4cc(-c5ccc(S(C)(=O)=O)cc5F)nc4s3)CC2)nc1 [Formula IA]	16	123		
N[C@@H](CC(=O)N1CCn2c(nnc2C(F)(F)F)C1)Cc1cc(F)c(F)cc1F [sitagliptin, (3R)-3-amino-1-[3-(trifluoromethyl)-5,6,7,8-tetrahydro-5H-[1,2,4]triazolo-[4,3-a]pyrazin-7-yl]-4-(2,4,5-trifluorophenyl) butan-1-one]			15	253
